Laboratory results from PubChem BioAssay AID743388 (Vanderbilt Specialized Chemistry Center, 2014).
“And” between values parts separate entries of the source, which are not always exact repeats. Equal entries are not always repeated. The source made the active and inactive calls. No rule for the calls is given here.

Target: Phospholipase D1 (Homo sapiens) (UniProt Q13393)
Assay: PLD1-selective inhibitors in cells (AID 743388)
Conditions: Calu-1 cells, PMA-stimulated, PtdBuOH-d9 by mass spectrometry, 30 min; at 20 µM; active compounds read high

Sequence of Phospholipase D1 (Homo sapiens) (Q13393 whole entry, looked up): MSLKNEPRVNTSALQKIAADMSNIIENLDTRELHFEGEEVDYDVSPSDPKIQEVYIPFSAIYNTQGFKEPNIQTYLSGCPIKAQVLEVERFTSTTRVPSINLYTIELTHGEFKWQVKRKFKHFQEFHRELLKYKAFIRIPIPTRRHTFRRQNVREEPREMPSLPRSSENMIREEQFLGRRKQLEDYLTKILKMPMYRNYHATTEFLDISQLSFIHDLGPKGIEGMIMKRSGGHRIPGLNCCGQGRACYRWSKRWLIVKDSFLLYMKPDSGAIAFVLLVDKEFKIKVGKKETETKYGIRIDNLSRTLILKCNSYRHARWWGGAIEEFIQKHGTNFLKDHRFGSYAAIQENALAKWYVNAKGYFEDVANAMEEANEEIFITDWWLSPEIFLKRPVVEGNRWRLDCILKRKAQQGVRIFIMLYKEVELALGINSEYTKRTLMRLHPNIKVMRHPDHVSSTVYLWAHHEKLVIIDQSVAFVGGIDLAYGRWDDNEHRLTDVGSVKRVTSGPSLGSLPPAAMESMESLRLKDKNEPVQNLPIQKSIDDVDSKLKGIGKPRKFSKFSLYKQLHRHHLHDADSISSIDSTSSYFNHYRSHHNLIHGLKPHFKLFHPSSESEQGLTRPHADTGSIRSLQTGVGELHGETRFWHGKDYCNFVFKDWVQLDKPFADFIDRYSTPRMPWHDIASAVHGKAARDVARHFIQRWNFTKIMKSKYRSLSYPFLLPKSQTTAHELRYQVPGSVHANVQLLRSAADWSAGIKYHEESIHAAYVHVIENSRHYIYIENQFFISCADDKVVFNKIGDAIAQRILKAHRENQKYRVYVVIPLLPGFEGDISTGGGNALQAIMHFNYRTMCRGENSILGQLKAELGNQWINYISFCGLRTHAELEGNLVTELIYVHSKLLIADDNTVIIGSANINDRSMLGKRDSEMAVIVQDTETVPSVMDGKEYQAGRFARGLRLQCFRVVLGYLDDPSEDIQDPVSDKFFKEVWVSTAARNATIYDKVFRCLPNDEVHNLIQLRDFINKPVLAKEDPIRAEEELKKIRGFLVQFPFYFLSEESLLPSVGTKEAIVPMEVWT

SMILES | inhibition
O=C(NCCN1CCC2(CC1)C(=O)NCN2Cc1cccnc1)c1ccc(Cl)cc1Cl | 0% (inactive)
O=C(NCCN1CCC2(CC1)C(=O)NCN2c1cncc(F)c1)c1ccc(F)c(F)c1 | 17% (inactive)
O=C(NCCN1CCC2(CC1)C(=O)NCN2c1cncc(F)c1)c1ccc2ccccc2c1 | 14% (inactive)
O=C(NCCN1CCC2(CC1)C(=O)NCN2Cc1cccnc1)c1cccs1 | 3% (inactive)
O=C(NCCN1CCC2(CC1)C(=O)NCN2c1cccnc1)c1ccc2ccccc2c1 | 7% (inactive)
O=C(NCCN1CCC2(CC1)C(=O)NCN2Cc1cccnc1)c1ccc2cc(F)ccc2c1 | 9% (inactive)
O=C(NCCN1CCC2(CC1)C(=O)NCN2Cc1cccnc1)c1ccc(Cl)cc1F | 0% (inactive)
Cc1nc2sc(C(=O)NCCN3CCC4(CC3)C(=O)NCN4Cc3cccnc3)c(N)c2c(C)c1C | 9% (inactive)
O=C(NCCN1CCC2(CC1)C(=O)NCN2Cc1cccnc1)c1c(F)ccc(Cl)c1F | 0% (inactive)
O=C(NCCN1CCC2(CC1)C(=O)NCN2Cc1cccnc1)c1ccnc2ccccc12 | 13% (inactive)
O=C(NCCN1CCC2(CC1)C(=O)NCN2Cc1cccnc1)c1ccc(SC(F)(F)F)cc1 | 5% (inactive)
Cc1cc(N2CNC(=O)C23CCN(CCNC(=O)c2ccc4ccccc4c2)CC3)ccn1 | 7% (inactive)
O=C(NCCN1CCC2(CC1)C(=O)NCN2CC1CC1)c1ccc2ccccc2c1 | 43% (inactive)
O=C(NCCN1CCC2(CC1)C(=O)NCN2Cc1cccnc1)c1cc2cc(F)ccc2[nH]1 | 4% (inactive)
O=C(NCCN1CCC2(CC1)C(=O)NCN2Cc1cccnc1)c1nccc2ccccc12 | 0% (inactive)
O=C(NCCN1CCC2(CC1)C(=O)NCN2c1cccnc1)c1cc2cc(F)ccc2[nH]1 | 9% (inactive)
O=C(NCCN1CCC2(CC1)C(=O)NCN2c1cccnc1)c1cc(F)c(F)c(F)c1 | 6% (inactive)
O=C(NCCN1CCC2(CC1)C(=O)NCN2Cc1cccnc1)c1cccc(Cl)c1 | 0% (inactive)
Cn1c(C(=O)NCCN2CCC3(CC2)C(=O)NCN3Cc2cccnc2)cc2ccccc21 | 10% (inactive)
O=C(NCCN1CCC2(CC1)C(=O)NCN2c1ccc(C(F)(F)F)nc1)c1ccc2ccccc2c1 | 2% (inactive)
O=C(NCCN1CCC2(CC1)C(=O)NCN2Cc1ccccc1F)c1ccc2ccccc2c1 | 77% and 87%
O=C(NCCN1CCC2(CC1)C(=O)NCN2Cc1cccnc1)c1c[nH]c2ccccc12 | 25% (inactive)
COc1cccc(C(=O)N2CNC(=O)C23CCN(CCNC(=O)c2ccc4ccccc4c2)CC3)c1 | 50%
O=C(NCCN1C=CC2(CC1)C(=O)NCN2Cc1cccnc1)c1cccc2nsnc12 (stereo not drawn) | 9% (inactive)
O=C(NCCN1CCC2(CC1)C(=O)NCN2Cc1cccnc1)c1ccc(F)c(F)c1 | 3% (inactive)
O=C(NCCN1CCC2(CC1)C(=O)NCN2C(=O)c1ccccc1)c1ccc2ccccc2c1 | 45% (inactive)

SMILES | inhibition
O=C(NCCN1CCC2(CC1)C(=O)NCN2Cc1cccnc1)c1ccccc1F | 0% (inactive)
O=C(NCCN1CCC2(CC1)C(=O)NCN2Cc1cccnc1)c1ccc(F)cc1C(F)(F)F | 0% (inactive)
O=C(NCCN1CCC2(CC1)C(=O)NCN2c1cncc(F)c1)c1cc(F)c(F)c(F)c1 | 17% (inactive)
O=C(NCCN1CCC2(CC1)C(=O)NCN2c1ccnc(Cl)c1)c1ccc2ccccc2c1 | 0% (inactive)
O=C(NCCN1CCC2(CC1)C(=O)NCN2Cc1cccnc1)c1ccc(Cl)c(Cl)c1 | 13% (inactive)
O=C(NCCN1CCC2(CC1)C(=O)NCN2Cc1cccnc1)c1ccc(F)cc1F | 7% (inactive)
O=C(NCCN1CCC2(CC1)C(=O)NCN2Cc1cccnc1)c1nc(-c2ccc(F)cc2)no1 | 30% (inactive)
O=C(NCCN1CCC2(CC1)C(=O)NCN2Cc1cccnc1)c1ccc(Br)cc1 | 9% (inactive)
O=C(NCCN1CCC2(CC1)C(=O)NCN2Cc1cccnc1)c1ccc2ccccc2c1Br | 10% (inactive)
O=C(NCCN1CCC2(CC1)C(=O)NCN2Cc1cccnc1)c1c(Cl)cncc1Cl | 20% (inactive)
O=C(NCCN1CCC2(CC1)C(=O)NCN2Cc1cccnc1)c1ccc(C(F)(F)F)cc1 | 0% (inactive)
Cc1ccc(S(=O)(=O)NCCN2CCC3(CC2)C(=O)NCN3Cc2cccnc2)cc1 | 0% (inactive)
O=C(NCCN1CCC2(CC1)C(=O)NCN2c1cncc(F)c1)c1ccc(Br)cc1 | 12% (inactive)
O=C(NCCN1CCC2(CC1)C(=O)NCN2Cc1cccnc1)c1ccc(F)cc1 | 3% (inactive)
O=C(NCCN1CCC2(CC1)C(=O)NCN2Cc1cccnc1)c1cccc(F)c1 | 2% (inactive)
O=C(NCCN1CCC2(CC1)C(=O)NCN2Cc1ccncc1)c1ccc2ccccc2c1 | 53%
O=C(NCCN1CCC2(CC1)C(=O)NCN2c1ccnc(F)c1)c1ccc2ccccc2c1 | 3% (inactive)
O=C(NCCN1CCC2(CC1)C(=O)NCN2Cc1cccnc1)c1cc(F)c(F)c(F)c1 | 0% (inactive)
COc1cc(C(=O)NCCN2CCC3(CC2)C(=O)NCN3Cc2cccnc2)cc(OC)c1OC | 0% (inactive)
O=C(NCCN1CCC2(CC1)NCNC2=O)c1ccc2ccccc2c1 | 7% (inactive)
O=C(NCCN1CCC2(CC1)C(=O)NCN2Cc1cccnc1)c1ccc(F)cc1Cl | 0% (inactive)
O=C(NCCN1CCC2(CC1)C(=O)NCN2C(=O)C1CCC1)c1ccc2ccccc2c1 | 80%
O=C(NCCN1CCC2(CC1)C(=O)NCN2Cc1cccc2ccccc12)c1ccc2ccccc2c1 | 94%
O=C(NCCN1CCC2(CC1)C(=O)NCN2Cc1cccnc1)c1ccc2ccccc2n1 | 11% (inactive)
O=C(NCCN1CCC2(CC1)C(=O)NCN2c1cccnc1)c1ccc(Br)cc1 | 0% (inactive)
Cc1cc(Br)cnc1C(=O)NCCN1CCC2(CC1)C(=O)NCN2Cc1cccnc1 | 0% (inactive)

SMILES | inhibition
O=C(NCCN1CCC2(CC1)C(=O)NCN2Cc1cccnc1)c1cc(F)cc(F)c1 | 0% (inactive)
O=C(NCCN1CCC2(CC1)C(=O)NCN2Cc1ccccn1)c1ccc2ccccc2c1 | 88%
Cn1cc(C(=O)NCCN2CCC3(CC2)C(=O)NCN3Cc2cccnc2)c2ccccc21 | 5% (inactive)
O=C(NCCN1CCC2(CC1)C(=O)NCN2Cc1ccccc1Cl)c1ccc2ccccc2c1 | 91%
O=C(NCCN1CCC2(CC1)C(=O)NCN2Cc1ccccc1)c1ccc2ccccc2c1 | 72%
O=C(NCCN1CCC2(CC1)C(=O)NCN2c1cccnc1)c1ccc(F)cc1 | 7% (inactive)
O=C(NCCN1CCC2(CC1)C(=O)NCN2C(=O)c1cccc(F)c1)c1ccc2ccccc2c1 | 50%
O=C(NCCN1CCC2(CC1)C(=O)NCN2Cc1ccc(Cl)cc1)c1ccc2ccccc2c1 | 64%
O=C(NCCN1CCC2(CC1)C(=O)NCN2c1cncc(F)c1)c1cc2cc(F)ccc2[nH]1 | 26% (inactive)
O=C(NCCN1CCC2(CC1)C(=O)NCN2Cc1cccnc1)c1cc2cccnc2[nH]1 | 16% (inactive)
O=C(NCCN1CCC2(CC1)C(=O)NCN2C(=O)C1CC1)c1ccc2ccccc2c1 | 83%
O=C(NCCN1CCC2(CC1)C(=O)NCN2Cc1cccnc1)c1sc2ncccc2c1-n1cccc1 | 29% (inactive)
Cc1cc(C)c2cc(C(=O)NCCN3CCC4(CC3)C(=O)NCN4Cc3cccnc3)[nH]c2c1 | 13% (inactive)
O=C(NCCN1CCC2(CC1)C(=O)NCN2Cc1cccnc1)c1cc2ccccc2o1 | 14% (inactive)
O=C(NCCN1CCC2(CC1)C(=O)NCN2Cc1cccnc1)c1cccc2cccnc12 | 4% (inactive)
O=C(NCCN1CCC2(CC1)C(=O)NCN2Cc1cccnc1)c1ccc2c(c1)C(=O)NC2=O | 13% (inactive)
O=C(NCCN1CCC2(CC1)C(=O)NCN2c1cncc(Br)c1)c1ccc2ccccc2c1 | 9% (inactive)
O=C(NCCN1CCC2(CC1)C(=O)NCN2Cc1ccccc1Br)c1ccc2ccccc2c1 | 96%
O=C(NCCN1CCC2(CC1)C(=O)NCN2c1cncc(F)c1)c1ccc(F)cc1 | 25% (inactive)
O=C(NCCN1CCC2(CC1)C(=O)NCN2Cc1cccnc1)c1cccc(C(F)(F)F)c1 | 0% (inactive)
O=C(NCCN1CCC2(CC1)C(=O)NCN2Cc1cccnc1)c1cc2ccccc2[nH]1 | 64%
O=C(NCCN1CCC2(CC1)C(=O)NCN2Cc1cccnc1)c1ccc2ccccc2c1 | 37% (inactive) and 38% (inactive)
O=C(NCCN1CCC2(CC1)C(=O)NCN2Cc1cccc(Cl)c1)c1ccc2ccccc2c1 | 89%
O=C(NCCN1CCC2(CC1)C(=O)NCN2Cc1cccc(OC(F)(F)F)c1)c1ccc2ccccc2c1 | 10% (inactive)
O=C(NCCN1CCC2(CC1)C(=O)NCN2c1cccnc1)c1ccc(F)c(F)c1 | 16% (inactive)
O=C(NCCN1CCC2(CC1)C(=O)NCN2Cc1cccnc1)[C@@H]1C[C@H]1c1ccccc1 | 23% (inactive)
